Laboratory results from patent US6716829B2, “Aldosterone antagonist and cyclooxygenase-2 inhibitor combination therapy to prevent or treat inflammation-related cardiovascular disorders” (Pharmacia Corporation, priority 2000, dated 2004).
Where “and” joins values, the source holds several entries; their conditions need not be identical. Equal entries are not always repeated.

Assays:
[1] = system: angiotensin II infused rats; experiment: Assay A, angiotensin II infusion model: systolic blood pressure by tail-cuff; format: in vivo, Male Wistar rats; conditions: angiotensin II 25 ng/min sc, 1% NaCl; eplerenone 100 mpk; aldosterone in adrenalectomized rats; 4 weeks
Experimental: Human cardiovascular disorders are complex conditions, often initiated by vascular hypertension or a myocardial infarction (MI). In order to determine the probable effectiveness of a therapy for cardiovascular disorders, it is important to determine the potency of components in several assays. Accordingly, in Assay “A”, the efficacy of the aldosterone antagonist epeplerenone (epoxymexrenone) was determined in a hypertensive rat model with vascular inflammation, using angiotensin II infusion. In Assay “B” a study is described evaluating the efficacy of the aldosterone antagonist epeplerenone (epoxymexrenone) in a rat model using aldosterone infusion to produce hypertension with vascular inflammation. In Assay “C” a further study is described evaluating the efficacy of the aldosterone antagonist epeplerenone (epoxymexrenone) in a rat model using aldosterone infusion to produce hypertension with vascular inflammation.
Assay A: In Vivo Angiotensin II Infusion Model
Male Wistar rats (n=50, 10/group; BW=200 g)
SBP measured by tail-cuff every week

[2] = system: aldosterone + salt treated uninephrectomized rats; experiment: Assay C, further aldosterone infusion study: radiotelemetrized arterial (systolic) blood pressure; format: in vivo, Male Sprague-Dawley rats; conditions: for Systolic Blood Pressure (mmHg): mean ± SEM of values every 5 min over 24-hour period
Experimental: Assay C: Further In Vivo Aldosterone Infusion Study
The procedure of Assay B was expanded upon in a further study. […] Myocardial tissue from animals in each treatment group was examined after 7, 14, or 30 days of treatment.
Male Sprague-Dawley rats, weighing 230 to 250 g, (Harlan Sprague-Dawley Industries, Indianapolis, IN) were housed in a room 12-hours light/12-hours dark daily cycle at an ambient temperature of 22±1° C. (n=96). Animals were allowed one week to adjust after arrival and had free access to TEKLAD 22/5 rodent diet (Harlan TEKLAD, Madison, Wis.) and tap water until the initiation of the experiment.
Potassium chloride supplementation was added to the saline solution in order to prevent the potential hypokalemia associated with aldosterone excess.
At the time of the surgery, an Alzet 2002 osmotic minipump (Alza Corp., Palo Alto, Calif.) containing either vehicle (9% ethanol/87% propylene glycol/4% dH2O) or 1.0 mg/mL d-aldosterone (Sigma Chemical, St. Louis, Mo.) was inserted subcutaneously at the nape of the neck. Aldosterone was administered at a dose of 0.75 µg/hour. […] Animals were sacrificed from each group (n=8-13) after 7, 14, or 30 days of treatment.
Animals to be sacrificed after 7 or 14 days of treatment were uninephrectomized and implanted with an Alzet minipump. Animals treated for 30 days were uninephrectomized, fitted for Alzet minipumps, and implanted with radio telemetry units (model #TA11PA-C40, Data Sciences Inc., St. Paul, Minn.) according to the following procedure. Animals were anesthetized with 5% isoflurane (SOLVAY Animal Health Inc., Mendota Heights, Minn.), which was delivered in O2 using a VMS anesthesia instrument (Matrix Medical, Inc., Orchard Park, N.Y.). Anesthesia was maintained with 1-2% isoflurane throughout the surgical procedure. The surgery site was clipped, scrubbed with nolvasan, and sprayed with betadine. A rostral-caudal incision was made through the skin from the base of the rib cage to the pubic region using a #11 scalpel blade. A second incision was made through the muscles of the abdominal wall to expose the peritoneal cavity. The […], renal artery and vein of the left kidney were isolated, tied off with 4-0 silk, and the kidney excised and discarded. Organs were carefully displaced with tissue retractors in order to expose the abdominal aorta. A 1.5 cm segment just rostral to the bifurcation of the abdominal aorta into the iliac arteries was cleared of excessive connective tissue and 4-0 silk was used to make an anchor adjacent to the aorta. A microvascular clip was then placed at both ends of the cleaned region to stop excessive blood flow. Using a bent, 21 gauge needle, the abdominal aorta was penetrated. The cannula of the radio telemetry unit was inserted and stabilized in the aorta using the 4-0 silk anchor. Organs were repositioned and the telemetry unit was placed over the organs. Using a non-interrupted suture pattern with 4-0 silk, the abdominal wall was closed, and the skin was subsequently closed using a 4-0 silk in an interrupted suture pattern. Animals were injected around the sutures with 100 μL of the anesthetic Marcaine HCl (Sanofi Winthrop Pharmaceuticals, New York, N.Y.) and given an injection (i.m.) of the antibiotic Mandol (Eli Lilly & Co., Indianapolis, Ind.). Post-operative care included monitoring the animals on a heating pad during recovery from anesthesia until sternal recumbency was reestablished. Animals were monitored daily for signs of distress and infection at the surgical site. Animals displaying continued discomfort after surgery were treated with 0.1-0.5 mg/kg, s.c. Buphrenorphine (Rickett & Colman Pharmaceuticals, Inc. Richmond, Va.). Animals were then placed on tap water and TEKLAD 22/5 rodent diet (Harlan TEKLAD, Madison, Wis.).
Radiotelemetrized arterial blood pressure was calculated with the […]

COC(=O)[C@@H]1CC2=CC(=O)CC[C@]2(C)[C@@]23O[C@@H]2C[C@@]2(C)[C@@H](CC[C@@]24CCC(=O)O4)[C@H]13 [Eplerenone]
Systolic Blood Pressure [1]: Neither eplerenone nor adrenalectomy reduced blood pressure | Systolic Blood Pressure ([2]; Day 3, individual rats, 30-day protocol, listed as Eplerenone + aldosterone + salt): 123 mmHg and 126 mmHg (2×) and 130 mmHg (2×) and 128 mmHg and 119 mmHg and 125 mmHg (2×) | Systolic Blood Pressure (mmHg) ([2]; Day 3): 126 ± 1 mmHg | Systolic Blood Pressure ([2]; Day 4, individual rats, 30-day protocol, listed as Eplerenone + aldosterone + salt): 130 mmHg (2×) and 128 mmHg (2×) and 131 mmHg and 139 mmHg and 122 mmHg and 126 mmHg and 134 mmHg | Systolic Blood Pressure (mmHg) ([2]; Day 4): 130 ± 2 mmHg | Systolic Blood Pressure ([2]; Day 5, individual rats, 30-day protocol, listed as Eplerenone + aldosterone + salt): 132 mmHg (2×) and 134 mmHg and 143 mmHg and 123 mmHg and 127 mmHg (2×) and 133 mmHg and 142 mmHg | Systolic Blood Pressure (mmHg) ([2]; Day 5): 132 ± 2 mmHg | Systolic Blood Pressure ([2]; Day 6, individual rats, 30-day protocol, listed as Eplerenone + aldosterone + salt): 133 mmHg (2×) and 142 mmHg and 136 mmHg and 152 mmHg and 126 mmHg and 137 mmHg and 140 mmHg and 150 mmHg | Systolic Blood Pressure (mmHg) ([2]; Day 6): 139 ± 3 mmHg | Systolic Blood Pressure ([2]; Day 7, individual rats, 30-day protocol, listed as Eplerenone + aldosterone + salt): 140 mmHg (3×) and 142 mmHg and 143 mmHg and 156 mmHg (2×) and 132 mmHg and 141 mmHg | Systolic Blood Pressure (mmHg) ([2]; Day 7): 143 ± 3 mmHg | Systolic Blood Pressure ([2]; Day 8, individual rats, 30-day protocol, listed as Eplerenone + aldosterone + salt): 142 mmHg and 146 mmHg and 141 mmHg and 156 mmHg and 131 mmHg and 138 mmHg (2×) and 139 mmHg and 152 mmHg | Systolic Blood Pressure (mmHg) ([2]; Day 8): 142 ± 3 mmHg | Systolic Blood Pressure ([2]; Day 9, individual rats, 30-day protocol, listed as Eplerenone + aldosterone + salt): 142 mmHg and 146 mmHg and 139 mmHg and 154 mmHg and 130 mmHg and 133 mmHg and 137 mmHg and 141 mmHg and 151 mmHg | Systolic Blood Pressure (mmHg) ([2]; Day 9): 142 ± 3 mmHg | Systolic Blood Pressure ([2]; Day 10, individual rats, 30-day protocol, listed as Eplerenone + aldosterone + salt): 143 mmHg (2×) and 138 mmHg and 158 mmHg and 134 mmHg and 136 mmHg and 139 mmHg and 142 mmHg and 149 mmHg | Systolic Blood Pressure (mmHg) ([2]; Day 10): 142 ± 2 mmHg | Systolic Blood Pressure ([2]; Day 11, individual rats, 30-day protocol, listed as Eplerenone + aldosterone + salt): 145 mmHg (2×) and 139 mmHg and 138 mmHg and 160 mmHg and 136 mmHg and 137 mmHg and 140 mmHg and 152 mmHg | Systolic Blood Pressure (mmHg) ([2]; Day 11): 143 ± 3 mmHg | Systolic Blood Pressure ([2]; Day 12, individual rats, 30-day protocol, listed as Eplerenone + aldosterone + salt): 147 mmHg and 140 mmHg (2×) and 139 mmHg (2×) and 165 mmHg and 137 mmHg and 148 mmHg and 154 mmHg | Systolic Blood Pressure (mmHg) ([2]; Day 12): 145 ± 3 mmHg | Systolic Blood Pressure ([2]; Day 13, individual rats, 30-day protocol, listed as Eplerenone + aldosterone + salt): 148 mmHg and 144 mmHg and 137 mmHg and 170 mmHg and 140 mmHg (3×) and 149 mmHg | Systolic Blood Pressure (mmHg) ([2]; Day 13): 147 ± 3 mmHg | Systolic Blood Pressure (mmHg) ([2]; Day 14): 150 ± 4 mmHg | Systolic Blood Pressure (mmHg) ([2]; Day 15): 148 ± 4 mmHg | Systolic Blood Pressure (mmHg) ([2]; Day 16): 150 ± 4 mmHg | Systolic Blood Pressure (mmHg) ([2]; Day 17): 154 ± 5 mmHg | Systolic Blood Pressure (mmHg) ([2]; Day 18): 157 ± 5 mmHg | Systolic Blood Pressure (mmHg) ([2]; Day 19): 160 ± 5 mmHg | Systolic Blood Pressure (mmHg) ([2]; Day 20): 160 ± 5 mmHg | Systolic Blood Pressure (mmHg) ([2]; Day 21): 165 ± 6 mmHg | Systolic Blood Pressure (mmHg) ([2]; Day 22): 167 ± 6 mmHg | Systolic Blood Pressure (mmHg) ([2]; Day 23): 172 ± 6 mmHg | Systolic Blood Pressure (mmHg) ([2]; Day 25): 176 ± 6 mmHg | Systolic Blood Pressure (mmHg) ([2]; Day 26): 180 ± 7 mmHg | Systolic Blood Pressure ([2]; aldosterone + salt, uninephrectomized rats, up to 30 days, eplerenone 100 mg/kg/day): significantly reduced at days 8-30
